Laboratory results: US4628104A, “Imidazole ketone derivatives” (G. D. Searle & Co., priority 1985, dated 1986)
In brackets after ≈: the same amount, converted by molar mass. Where a name gives a salt, the structure may show the parent alone. Read-outs that look alike come from different tables or passages of the source.

How the values were obtained:
B. fragilis NCTC 10581 = test: Anti-anaerobic activity, microtitre plate broth dilution, strain A; format: cell-based, Bacteroides fragilis; conditions: Bacteroides fragilis, NCTC10581, 48 h, strain A; for MBC: 99.9% reduction in viable count, 48 hours, read-out: MBC (Minimum Bactericidal Concentration); for MIC: 48 hours at 37° C., anaerobic, read-out: MIC (Minimum Inhibitory Concentration)
B. fragilis NCTC 9343 = test: Anti-anaerobic activity, microtitre plate broth dilution, strain B; format: cell-based, Bacteroides fragilis; conditions: Bacteroides fragilis, NCTC9343, 48 h; for MBC: 99.9% reduction in viable count, 48 hours, read-out: MBC (Minimum Bactericidal Concentration); for MIC: 48 hours at 37° C., anaerobic, read-out: MIC (Minimum Inhibitory Concentration)
[1] = system: B. fragilis MZ-R ATCC 11295; test: Anti-anaerobic activity, microtitre plate broth dilution, strain D; format: cell-based, Bacteroides fragilis; conditions: Bacteroides fragilis, ATCC11295, 48 h, strain D; for MBC: 99.9% reduction in viable count, 48 hours, read-out: MBC (Minimum Bactericidal Concentration); for MIC: 48 hours at 37° C., anaerobic, read-out: MIC (Minimum Inhibitory Concentration)
B. fragilis NCTC 9344 = test: Anti-anaerobic activity, microtitre plate broth dilution, strain C; format: cell-based; conditions: Bacteroides fragilis, NCTC9344, 48 h; for MBC: 99.9% reduction in viable count, 48 hours, read-out: MBC (Minimum Bactericidal Concentration); for MIC: 48 hours at 37° C., anaerobic, read-out: MIC (Minimum Inhibitory Concentration)
B. fragilis WS-1 = test: Anti-anaerobic activity, microtitre plate broth dilution, strain E; format: cell-based; conditions: Bacteroides fragilis, WS1, 48 h, 48 hours at 37° C., read-out: MIC (Minimum Inhibitory Concentration)
[2] = system: Clostridium perfringens NCTC 8237; test: microbe, parasite or virus in culture; format: cell-based; conditions: NCTC8237, strain G
[3] = system: Fusobacterium necrophorum ATCC 11295; test: Anti-anaerobic activity, additional strains, strain J; format: cell-based
[4] = system: Peptostreptococcus anaerobicus ATCC 27337; test: Anti-anaerobic activity, additional strains, strain M; conditions: ATCC27337
[5] = system: Peptococcus prevotti ATCC 9321; test: Anti-anaerobic activity, additional strains, strain L; format: cell-based
[6] = system: Campylobacter fetus ATCC 29428; test: Anti-anaerobic activity, additional strains, strain I; conditions: ATCC29428
[7] = system: Propionibacterium acnes NCTC 7337; test: Anti-anaerobic activity, additional strains, strain O; format: cell-based; conditions: Cutibacterium acnes, NCTC7337
Clostridium difficile CI = test: Anti-anaerobic activity, additional strains, strain H; conditions: Clostridioides difficile
[8] = system: Peptococcus magnus ATCC 29328; test: Anti-anaerobic activity, additional strains, strain K; format: cell-based; conditions: Finegoldia magna, ATCC29328
[9] = system: Clostridium perfringens NCTC 523; test: microbe, parasite or virus in culture; format: cell-based; conditions: NCTC523
[10] = system: Propionibacterium acnes NCTC 737; test: Anti-anaerobic activity, additional strains, strain N; format: cell-based; conditions: Cutibacterium acnes, NCTC737
[11] = ATCC11295, strain J, read-out: MIC

Work on `Cc1ccc(C(Cn2cncn2)C(=O)c2ccc(Cl)cc2Cl)cc1` (centres unmarked) [Example 16, 1-(2,4-Dichlorophenyl)-2-(4-methylphenyl)-3-(1,2,4-triazol-1-yl)propan-1-one hydrochloride] yielded an MBC (B. fragilis NCTC 10581) of 3.1 µg/mL, an MIC (B. fragilis NCTC 10581) of 3.1 µg/mL and an MBC (B. fragilis NCTC 9343) of 3.1 µg/mL. It also gave an MIC (B. fragilis NCTC 9343) of 3.1 µg/mL, an MBC [1] of 15 µg/mL and an MIC [1] of 0.8 µg/mL. For the same compound, the MBC (B. fragilis NCTC 9344) was 3.1 µg/mL, the MIC (B. fragilis NCTC 9344) was 3.1 µg/mL and the MIC (B. fragilis WS-1) was 1.5 µg/mL.
`CSc1nccn1CC(C(=O)c1ccc(Cl)cc1Cl)c1ccccc1` (centres unmarked) [Example 24, 1-(2,4-Dichlorophenyl)-2-phenyl-3-(2-thiomethylimidazol-1-yl)propan-1-one] showed an MBC (B. fragilis NCTC 10581) of 100 µg/mL (≈ 256 µM), an MIC (B. fragilis NCTC 10581) of 25 µg/mL (≈ 63.9 µM) and an MBC (B. fragilis NCTC 9343) of 100 µg/mL (≈ 256 µM). It also gave an MIC (B. fragilis NCTC 9343) of 25 µg/mL (≈ 63.9 µM), an MBC [1] of 100 µg/mL (≈ 256 µM) and an MIC [1] of 25 µg/mL (≈ 63.9 µM). The MBC (B. fragilis NCTC 9344) was 100 µg/mL (≈ 256 µM), the MIC (B. fragilis NCTC 9344) was 25 µg/mL (≈ 63.9 µM) and the MIC (B. fragilis WS-1) was 50 µg/mL (≈ 128 µM).
`CCCCCCCC(=O)C(Cn1ccnc1)c1ccc(C)cc1` (centres unmarked) [Example 17, 1-(Imidazol-1-yl)-2-(4-methylphenyl)decan-3-one hydrochloride] gave an MBC (B. fragilis NCTC 10581) of 100 µg/mL, an MIC (B. fragilis NCTC 10581) of 12.5 µg/mL and an MBC (B. fragilis NCTC 9343) of 100 µg/mL. The MIC (B. fragilis NCTC 9343) was 12.5 µg/mL, the MBC [1] was 100 µg/mL and the MIC [1] was 3.1 µg/mL. For the same compound, the MIC (B. fragilis WS-1) was 12.5 µg/mL.
`O=C(c1ccc(Cl)cc1Cl)C(Cn1cncn1)c1ccccc1` (centres unmarked) [Example 23, 1-(2,4-Dichlorophenyl)-2-phenyl-3-(1,2,4-triazol-1-yl) propan-1-one] gave an MBC (B. fragilis NCTC 10581) of 0.8 µg/mL (≈ 2.31 µM), an MIC (B. fragilis NCTC 10581) of 0.8 µg/mL (≈ 2.31 µM) and an MBC (B. fragilis NCTC 9343) of 0.8 µg/mL (≈ 2.31 µM). For the same compound, the MIC (B. fragilis NCTC 9343) was 0.8 µg/mL (≈ 2.31 µM), the MBC [1] was 0.8 µg/mL (≈ 2.31 µM) and the MIC [1] was 0.8 µg/mL (≈ 2.31 µM). It also gave an MBC (B. fragilis NCTC 9344) of 0.8 µg/mL (≈ 2.31 µM), an MIC (B. fragilis NCTC 9344) of 0.8 µg/mL (≈ 2.31 µM) and an MIC (B. fragilis WS-1) of 0.8 µg/mL (≈ 2.31 µM).
In the case of `O=C(c1cc(Cl)cc(Cl)c1)C(Cn1ccnc1)c1ccccc1` (centres unmarked) [Example 18, 1-(3,5-Dichlorophenyl)-3-(imidazol-1yl)-2-phenyl propan-1-one], the MBC (B. fragilis NCTC 10581) is reported as 1.5 µg/mL (≈ 4.34 µM), the MIC (B. fragilis NCTC 10581) is reported as 0.8 µg/mL (≈ 2.32 µM) and the MBC (B. fragilis NCTC 9343) is reported as 1.5 µg/mL (≈ 4.34 µM). For the same compound, the MIC (B. fragilis NCTC 9343) was 1.5 µg/mL (≈ 4.34 µM), the MIC [2] was 3.1 µg/mL (≈ 8.98 µM) and the MBC [1] was 1.5 µg/mL (≈ 4.34 µM). The MIC [1] was 0.8 µg/mL (≈ 2.32 µM), the MIC [3, 11] was 6.2 µg/mL (≈ 18 µM) and the MIC [4] was 6.2 µg/mL (≈ 18 µM). The MIC [5] was 3.1 µg/mL (≈ 8.98 µM), the MIC [6] was 3.1 µg/mL (≈ 8.98 µM) and the MBC (B. fragilis NCTC 9344) was 0.8 µg/mL (≈ 2.32 µM). For the same compound, the MIC (B. fragilis NCTC 9344) was 0.8 µg/mL (≈ 2.32 µM), the MIC [7] was 3.1 µg/mL (≈ 8.98 µM) and the MIC (Clostridium difficile CI; strain H) was 1.5 µg/mL (≈ 4.34 µM). It also gave an MIC [8] of 3.1 µg/mL (≈ 8.98 µM), an MIC (B. fragilis WS-1) of 1.5 µg/mL (≈ 4.34 µM) and an MIC [9] of 3.1 µg/mL (≈ 8.98 µM). It also gave an MIC ([10]; strain N, read-out: MIC) of 6.2 µg/mL (≈ 18 µM).
Compound `Cc1ccc(C(Cn2ccnc2)C(=O)c2ccc(Cl)cc2Cl)cc1` (centres unmarked) [Example 15, 1-(2,4-Dichlorophenyl)-3-(imidazol-1-yl)-2-(4-methylphenyl) propan-1-one] has an MBC (B. fragilis NCTC 10581) of 0.8 µg/mL (≈ 2.23 µM), an MIC (B. fragilis NCTC 10581) of 0.8 µg/mL (≈ 2.23 µM) and an MBC (B. fragilis NCTC 9343) of 0.8 µg/mL (≈ 2.23 µM). For the same compound, the MIC (B. fragilis NCTC 9343) was 0.8 µg/mL (≈ 2.23 µM), the MIC [2] was 0.6 µg/mL (≈ 1.67 µM) and the MBC [1] was 0.8 µg/mL (≈ 2.23 µM). It also gave an MIC [1] of 0.8 µg/mL (≈ 2.23 µM), an MIC [3, 11] of 0.3 µg/mL (≈ 0.835 µM) and an MBC (B. fragilis NCTC 9344) of 0.8 µg/mL (≈ 2.23 µM). For the same compound, the MIC (B. fragilis NCTC 9344) was 0.8 µg/mL (≈ 2.23 µM), the MIC ([7]; strain O, read-out: MIC) was 0.1 µg/mL (≈ 0.278 µM) and the MIC (B. fragilis WS-1) was 0.8 µg/mL (≈ 2.23 µM). For the same compound, the MIC [9] was 0.3 µg/mL (≈ 0.835 µM) and the MIC ([10]; strain N, read-out: MIC) was 0.6 µg/mL (≈ 1.67 µM).
`O=C(c1ccc(Cl)cc1Cl)C(Cn1ccnc1)c1ccccc1` (centres unmarked) [Example 2, 1-(2,4-Dichlorophenyl)-3-(imidazol-1-yl)-2-phenylpropan-1-one] was tested, and the MBC (B. fragilis NCTC 10581) was 0.8 µg/mL (≈ 2.32 µM), the MIC (B. fragilis NCTC 10581) was 0.8 µg/mL (≈ 2.32 µM) and the MBC (B. fragilis NCTC 9343) was 0.8 µg/mL (≈ 2.32 µM). For the same compound, the MIC (B. fragilis NCTC 9343) was 0.8 µg/mL (≈ 2.32 µM), the MIC [2] was 0.8 µg/mL (≈ 2.32 µM) and the MBC [1] was 0.8 µg/mL (≈ 2.32 µM). It also gave an MIC [1] of 0.8 µg/mL (≈ 2.32 µM), an MIC ([3]; ATCC11295) of 0.8 µg/mL (≈ 2.32 µM) and an MIC [4] of 0.8 µg/mL (≈ 2.32 µM). It also gave an MIC [5] of 0.8 µg/mL (≈ 2.32 µM), an MIC [6] of 0.8 µg/mL (≈ 2.32 µM) and an MBC (B. fragilis NCTC 9344) of 0.8 µg/mL (≈ 2.32 µM). The MIC (B. fragilis NCTC 9344) was 0.8 µg/mL (≈ 2.32 µM), the MIC [7] was 0.8 µg/mL (≈ 2.32 µM) and the MIC (Clostridium difficile CI) was 0.8 µg/mL (≈ 2.32 µM). It also gave an MIC [8] of 0.8 µg/mL (≈ 2.32 µM), an MIC (B. fragilis WS-1) of 0.8 µg/mL (≈ 2.32 µM) and an MIC [9] of 0.8 µg/mL (≈ 2.32 µM). It also gave an MIC [10] of 0.8 µg/mL (≈ 2.32 µM).
